According to US20240327415A1, “Multicomponent Complexes, Including Salts, Crystalline Forms, and Hydrates and Solvates of ENT1 Inhibitors” (iTeos Belgium SA, priority 2023, published 2024):

Columns and labels:
Assay type in all cases: physicochemical
[1] = seven-day solid stability studies (ambient; 40° C./75% RH; 80° C.), XRPD and HPLC; set-up: key: Crystalline Form 2 di(hydrogen sulfate) trihydrate; Crystalline Form 3 di(hydrogen sulfate); M4: Crystalline Form 4 mono(hydrogen sulfate); Crystalline Form 6 di(hydrogen sulfate); 3 + 9: Mixture of Crystalline Form 3 di(hydrogen sulfate) and Crystalline Form 9 di(hydrogen sulfate); conditions: 7 days, 80° C. (closed vial)
Method: (§1) In the experiment, one set of vials was exposed to ambient light, temperature and humidity conditions. Another was exposed openly to 40° C. and 75% RH conditions and a third was sealed and exposed to 80° C. conditions. After 7 days, XRPD and HPLC measurements were collected.
(§2) Example 12-Stability Studies of Amorphous Compound 1 (free base) and Crystalline Form 1 Compound 1 (free base): Seven-day stability studies were carried out comparing amorphous Compound 1 (free base) and crystalline Form 1 Compound 1 (free base) at 40° C./75% RH, under ambient conditions and at 80° C. After storage at 40° C./75% RH and 80° C., the amorphous material formed glassy solids which were pale yellow (40° C./75% RH) or orange (80° C.). It is likely that the material melted and re-solidified at 80° C. and deliquesced at 40° C./75% RH. […] (decrease in purity of ca. 11% area).
(§3) Example 15-Stabilities Studies-Crystalline Form 3 Compound 1 di(hydrogen sulfate) and Crystalline Form 4 Compound 1 mono(hydrogen sulfate): Seven-day stability studies were carried out on the prepared crystalline Form 3 Compound 1 di(hydrogen sulfate) and crystalline Form 4 Compound 1 mono(hydrogen sulfate) using the following conditions: (1) Ambient light, temperature and humidity conditions (open vial); (2) 40° C./75% RH (open vial); and (3) 80° C. (closed vial). […]

[2] = hydration mapping studies (slurries at different water activities, Example 17); conditions: aw 0.1, dried 40° C. reduced pressure 24 hr
Method: Example 17—Hydration Mapping Studies-Crystalline Form 2 Compound 1 di(hydrogen sulfate) trihydrate, Crystalline Form 3 Compound 1 di(hydrogen sulfate), and Blend: The effects of different water activities on crystalline Form 2 Compound 1 di(hydrogen sulfate) trihydrate, crystalline Form 3 Compound 1 di(hydrogen sulfate) and a blend of the two were investigated. The “blend” was prepared by mixing crystalline Form 2 Compound 1 di(hydrogen sulfate) trihydrate and crystalline Form 3 Compound 1 di(hydrogen sulfate) in a 1:1 ratio. To the vials containing the required solid material, the appropriate solvent system was added to form slurries. The slurry samples were stirred at the required temperatures during and after the solvent addition. Where dissolution was observed post-solvent addition, additional solid was added to re-saturate the sample. After stirring at the required temperature for 48 hours, the residual solids left in the vials were analyzed by XRPD to assess the solid forms. The analyzed samples were then dried on the XRPD plate under reduced pressure at 40° C. for 24 hr. The dried samples were analyzed by XRPD.

[3] = seven-day solid stability studies (ambient; 40° C./75% RH; 80° C.), XRPD and HPLC; set-up: key: Crystalline Form 3 di(hydrogen sulfate); Crystalline Form 9 di(hydrogen sulfate); Melt/Amorphous; conditions: 7 days, sealed
Method: as §1, §2, §3

[4] = as above
Method: as §1, §2
Example 15-Stabilities Studies-Crystalline Form 3 Compound 1 di(hydrogen sulfate) and Crystalline Form 4 Compound 1 mono(hydrogen sulfate): Seven-day stability studies were carried out on the prepared crystalline Form 3 Compound 1 di(hydrogen sulfate) and crystalline Form 4 Compound 1 mono(hydrogen sulfate) using the following conditions: (1) Ambient light, temperature and humidity conditions (open vial); (2) 40° C./75% RH (open vial); and (3) 80° C. (closed vial). After 7 days of storage under the specified conditions, XRPD and HPLC analyses were carried out on the residual solid materials, and the results are summarized in Table 51.
Example 18-Seven Day Stability Study on Crystalline Form 2 Compound 1 di(hydrogen sulfate) trihydrate: A 7-day stability study was conducted on crystalline Form 2 Compound 1 di(hydrogen sulfate) trihydrate using the following conditions: (1) ambient light, temperature, and humidity conditions (open vial); (2) 40° C., 75% RH (open vial); and (3) 80° C. (closed vial). After 7 days of storage under the specified, XRPD and HPLC analyses were carried out on the residual solid materials.

[5] = salt screen, XRPD of damp, dried and 40° C./75% RH stored samples (Salt Preparation Methods 1 and 2); set-up: key: A = amorphous; Evap. = isolated via evaporation; conditions: L-Malic acid, 1 equiv.
Outline: (§4)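 XRPD was recorded three times: on damp solids isolated at 5 °C, after ~17–91 h vacuum drying at ~40 °C, and after 24–48 h storage at 40 °C/75% RH. Solids came from stirring free base with 1.0 or 2.0 equiv. counterion at 40 °C, 40–5 °C temperature cycling, and anti-solvent addition.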

[6] = as above; set-up: key: A = amorphous; * = predominantly; 1 = Form 1 Compound 1 L-malate; 2 = Form 2 Compound 1 L-malate; conditions: L-Malic acid, 1 equiv.; MEK; AS Heptane
Method: Salt Preparation Method 1: Approximately 25 mg of Compound 1 (free base) was weighed out into 1.5 mL screw-cap vials and a stirrer bar was added. For solid counterions, the appropriate amount of acid (1.0 or 2.0 equiv.) was weighed into separate 1.5 mL screw-cap vials. 100 μL of the appropriate solvent system was added to both the Compound 1 and the solid counterions. Stock solutions of liquid counterions were prepared, such that 100 μL contained 1.0 or 2.0 equiv. of acid. See counterion and solvent lists in Table 60 and Table 61 respectively.
The samples were stirred at 40° C. for 5-10 min and then the acid solutions were added to Compound 1, rinsing out the transfer vial with a further 50 μL of solvent. […] Experiments were temperature cycled between 40° C. and 5° C. […]
Temperature cycling was then continued for ca. 16-69 h, followed by further ASA and temperature cycling if required. Material was isolated at 5° C. and analyzed damp by XRPD. All isolated material was dried under vacuum at ca. 40° C. for ca. 17-91 h then re-analyzed by XRPD. The XRPD plate was stored at 40° C./75% RH for 24-48 h and then samples re-analyzed. […] Any residual solids were analyzed by XRPD. […]
The experiments were stirred at 40° C. for ca. 1 h, and then temperature cycled between 40° C. and 5° C. with 0.1° C./min ramp and 1 h hold between each step. […] The damp and dried solids were subsampled and analyzed by XRPD. […]

[7] = as above; conditions: L-Malic acid, 1 equiv., AS Heptane
Outline: as §4

## COc1cc(C(=O)O[C@@H]2CCCOc3cc(cc(OC)c3OC)C(=O)NCCCN3CCCN(CC2)CC3)cc(OC)c1OC.O=S(=O)(O)O.O=S(=O)(O)O [Form 3 di(hydrogen sulfate)]
[1]
  XRPD: 3 + 9
[2]; 20° C., 2-Propanol:Water
  XRPD, hydration studies - dried samples: 3, PC
[2]; 20° C., Acetonitrile:Water
  XRPD, hydration studies - dried samples: 3, PC
[2]; 50° C., 2-Propanol:Water
  XRPD, hydration studies - dried samples: 1, PC
[2]; 50° C., Acetonitrile:Water
  XRPD, hydration studies - dried samples: 3, PC
[3]
  XRPD: 9
[4]; 7 days, 40° C./75% RH (open vial)
  HPLC: 99.82 % area
[4]; 7 days, 40° C./75% RH, open vial
  HPLC: 99.82 % area
[4]; 7 days, 80° C. (closed vial)
  HPLC: 99.80 % area
[4]; 7 days, 80° C., sealed
  HPLC: 99.80 % area
[4]; 7 days, Ambient (open vial)
  HPLC: 99.84 % area
[4]; 7 days, Ambient, open vial
  HPLC: 99.84 % area
[4]; Input sample
  HPLC: 99.83 % area

## O=C(O)CC(O)C(=O)O [L-Malic acid, 1 equiv.]
[5]; Acetonitrile, AS tBME
  XRPD Analysis 40° C. 75% RH: A
  XRPD Analysis Damp: A
  XRPD Analysis Dry: A
[5]; Ethanol, AS Heptane
  XRPD Analysis 40° C. 75% RH: A
[5]; Ethyl acetate, AS Heptane
  XRPD Analysis 40° C. 75% RH: A
  XRPD Analysis Damp: A
  XRPD Analysis Dry: A
[5]; IPA:H2O (75:25% v/v), AS tBME
  XRPD Analysis 40° C. 75% RH: A
  XRPD Analysis Damp: A
  XRPD Analysis Dry: A
[5]; THE, AS Heptane
  XRPD Analysis 40° C. 75% RH: A
  XRPD Analysis Damp: A
  XRPD Analysis Dry: A
[6]
  XRPD Analysis 40° C. 75% RH: 1
[7]; Ethanol
  XRPD Analysis Damp: * A
  XRPD Analysis Dry: * A
[7]; MEK
  XRPD Analysis Damp: 1 + 2
  XRPD Analysis Dry: 1 + 2
